Like-named read-outs stand apart in the source and are kept apart here.
Assays:
[1] = test system: T-Rex 293 cell line SC3 cells having increased expression of androgen receptor protein due to exposure to doxycycline; assay: Cellular growth inhibition assay, T-Rex 293 SC3 cells with doxycycline (CellTiter-Glo, 72 hours); format: cell-based; conditions: T-Rex 293 SC3 cells with increased androgen receptor expression due to doxycycline (10 ng/mL)
In short: (§1)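 Doxycycline (10 ng/mL) was either included or omitted to toggle wild-type androgen receptor expression in SC3 cells, a T-Rex 293 clone, grown in stripped-serum, phenol red-free medium. After 72 hours with compound, viable cells were quantified by CellTiter-Glo 2.0.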

[2] = test system: T-Rex 293 cell line SC3 cells lacking increased expression of androgen receptor protein; assay: Cellular growth inhibition assay, T-Rex 293 SC3 cells without doxycycline (CellTiter-Glo, 72 hours); format: cell-based; conditions: T-Rex 293 cell line SC3 cells not exposed to doxycycline (lacking increased androgen receptor expression)
In short: as §1

VCaP cells = assay: Cellular growth inhibition assay for VCaP cells (CellTiter-Glo, 72 hours); format: cell-based, human
In short: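 Luminescent viability signal after 72 h of compound exposure gave GI50 values by four-parameter nonlinear regression. Compounds were added in 0.5% DMSO to cells plated 24 h earlier at 5000/well in DMEM containing 10% FBS.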

[3] = Cellular growth inhibition assay, T-Rex 293 SC cells with doxycycline (CellTiter-Glo, 72 hours); format: cell-based; conditions: T-Rex 293 SC cells with doxycycline (increased progesterone receptor isoform B)
Experimental: (§2) The following types of cells were prepared for this experiment: (i) a T-Rex 293 cell line having increased expression of progesterone receptor isoform B protein due to exposure to doxycycline and (ii) a T-Rex 293 cell line lacking increased expression of progesterone receptor isoform B protein. Ability of the test compounds to inhibit proliferation of the foregoing cell types was evaluated according to the procedures set forth below.
(§3) The doxycycline-inducible progesterone receptor isoform B protein expressing cell line was established using the following protocol: T-Rex 293 cells were purchased from Invitrogen (Cat #R71007) and transfected using Lipofectamine 2000 with the wild-type progesterone receptor B protein sequence cloned into the pcDNA4/TO vector. Transfected cells were selected using 400 μg/mL Zeocin (Invitrogen Cat #R25001). Following selection, single clones were raised and maintained in Dulbecco's Modified Eagle Medium (DMEM) supplemented with 10% w/w Tetracycline-free fetal bovine serum (FBS) and 250 μg/mL Zeocin. Clones were analyzed for expression of progesterone receptor isoform B protein in the presence and absence of 10 ng/mL doxycycline (Sigma Cat #D9891), and a single doxycycline-inducible clone (hereinafter “SC”) was selected for use in downstream assays.
(§4) The SC cells were seeded on poly-D-lysine coated, black clear-bottom 384-well plates at 2500/well, in 25 μL Phenol Red Free Dulbecco's Modified Eagle Medium (DMEM) supplemented with 10% w/w charcoal-dextran treated fetal bovine serum (FBS) and 1% w/w pen-strep, with or without 10 ng/mL doxycycline. Pen-Strep is a commercially available mixture of penicillin G and streptomycin, which is used in mammalian cell culture media to prevent bacterial contamination. Phenol Red Free Dulbecco's Modified Eagle Medium (DMEM) supplemented with 10% w/w charcoal-dextran treated fetal bovine serum (FBS) and 1% w/w pen-strep, with or without 10 ng/mL doxycycline is herein referred to as Treatment Medium. Following seeding of cells in the plates, the plates were spun at 300×g for 30 seconds, then equilibrated to room temperature for 30 minutes, and then deposited in a humidified tissue culture incubator maintained at 37° C. with 5% CO2.
(§5) At 24 hours after seeding of the cells, dilutions of test compound were prepared in DMSO and dissolved in Treatment Medium, to achieve a final DMSO concentration of 0.5% w/w, thereby providing the Test Compound Solution. A 25 μL aliquot of the Test Compound Solution was added to cells in the well plates. An equal volume of a solution containing DMSO and Treatment Medium was used as a negative control. Following treatment of cells with Test Compound Solution or said equal volume of a solution containing DMSO and Treatment Medium, the plates were spun at 300×g for 30 seconds, and then left in an incubator for 72 hours.
(§6) At the end of the treatment duration, cell viability was quantified with CellTiter-Glo 2.0 reagent (Promega Cat #G9243). For this purpose, plates were equilibrated to room temperature for 30 minutes, and then 25 μL of CellTiter-Glo 2.0 reagent was added to cells in the plate wells. Plates were then agitated on a shaker for two minutes at 500 rpm and subsequently incubated at room temperature for 10 minutes. Following incubation, the plates were spun at 3000×g for 30 seconds, then sealed with an optical adhesive cover, and luminescence readings were measured with an EnVision Plate Reader (Perkin Elmer).
(§7) Data was normalized using zero luminescence for baseline. A four-parameter non-linear regression curve fit was applied to dose-response data in GraphPad Prism data analysis software to determine the half-maximal growth inhibitory concentration (GI50) for each test compound.

[4] = test system: T-Rex 293 cell line SC cells lacking increased expression of progesterone receptor isoform B protein; assay: Cellular growth inhibition assay, T-Rex 293 SC cells without doxycycline (CellTiter-Glo, 72 hours); format: cell-based; conditions: T-Rex 293 SC cells not exposed to doxycycline
Experimental: as §2, §3, §4, §5, §6, §7

T47D cells = assay: Cellular growth inhibition assay for T47D cells (CellTiter-Glo, 72 hours); format: cell-based, human; conditions: 72 hours treatment
In short: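 Luminescence from CellTiter-Glo 2.0 after 72 h of compound exposure gives the viability signal. Cells grew in insulin-supplemented (0.2 units/mL) DMEM with 10% FBS and were treated one day after seeding at 0.5% DMSO. GI50 values come from four-parameter nonlinear regression.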

Compound | GI50 (VCaP cells; Homo sapiens, VCaP, 72 h) [nM] | GI50 (T47D cells; Homo sapiens, T47D, 72 h) [nM] | GI50 (VCaP cells) [nM] | GI50 (T47D cells) [nM] | GI50 ([1]; 72 h) [nM] | GI50 ([2]; 72 h) [nM] | GI50 [3] [nM] | GI50 [4] [nM] | GI50 [1] [nM] | GI50 [2] [nM]
CCNC(=O)C[C@@H]1N=C(c2ccc(OCCC3CCN(c4ccc(C(=O)N[C@H]5CC[C@H](Oc6ccc(C#N)c(Cl)c6)CC5)nn4)CC3)cc2)c2c(sc(C)c2C)-n2c(C)nnc21 [I-13] | < 500 | < 500 | – | – | < 500 | < 500 | < 500 | < 500 | – | –
CCNC(=O)C[C@@H]1N=C(c2ccc(OCCN3CCN(c4ccc(C(=O)N[C@H]5CC[C@H](Oc6ccc(C#N)c(Cl)c6)CC5)nn4)CC3)cc2)c2c(sc(C)c2C)-n2c(C)nnc21 [I-25] | < 500 | < 500 | – | – | < 500 | 500 to 1500 | < 500 | 500 to 1500 | – | –
CCNC(=O)C[C@@H]1N=C(c2ccc(OC3CCN(c4ccc(C(=O)N[C@H]5CC[C@H](Oc6ccc(C#N)c(Cl)c6)CC5)nn4)CC3)cc2)c2c(sc(C)c2C)-n2c(C)nnc21 [I-26] | < 500 | < 500 | – | – | < 500 | 500 to 1500 | < 500 | < 500 | – | –
CCNC(=O)C[C@@H]1N=C(c2ccc(N3CCN(CC4CCN(c5ccc(C(=O)N[C@H]6CC[C@H](Oc7ccc(C#N)c(Cl)c7)CC6)nn5)CC4)CC3)cc2)c2c(sc(C)c2C)-n2c(C)nnc21 [I-28] | < 500 | < 500 | – | – | < 500 | 500 to 1500 | < 500 | < 500 | – | –
CCNC(=O)C[C@@H]1N=C(c2ccc(C3CCC(OC4CCN(c5ccc(C(=O)N[C@H]6CC[C@H](Oc7ccc(C#N)c(Cl)c7)CC6)nn5)CC4)C3)cc2)c2c(sc(C)c2C)-n2c(C)nnc21 (stereo partly drawn) [I-67] | < 500 | < 500 | – | – | < 500 | < 500 | < 500 | < 500 | – | –
Cc1sc2c(c1C)C(c1ccc(CCN3CCCN(c4ccc(C(=O)N[C@H]5CC[C@H](Oc6ccc(C#N)c(Cl)c6)CC5)nn4)CC3)cc1)=N[C@@H](Cc1ncco1)c1nnc(C)n1-2 [I-128] | < 500 | < 500 | – | – | < 500 | < 500 | < 500 | < 500 | – | –
Cc1sc2c(c1C)C(c1ccc(CCCN3[C@H](C)CN(c4ccc(C(=O)N[C@H]5CC[C@H](Oc6ccc(C#N)c(Cl)c6)CC5)nn4)C[C@@H]3C)cc1)=N[C@@H](Cc1ncco1)c1nnc(C)n1-2 [I-129] | < 500 | < 500 | – | – | < 500 | < 500 | < 500 | < 500 | – | –
Cc1sc2c(c1C)C(c1ccc(CCCN3[C@@H](C)CN(c4ccc(C(=O)N[C@H]5CC[C@H](Oc6ccc(C#N)c(Cl)c6)CC5)nn4)C[C@@H]3C)cc1)=N[C@@H](Cc1ncco1)c1nnc(C)n1-2 [I-130] | < 500 | < 500 | – | – | < 500 | < 500 | < 500 | < 500 | – | –
Cc1sc2c(c1C)C(c1ccc(C3C[C@@H]3CC3CCCN(c4ccc(C(=O)N[C@H]5CC[C@H](Oc6ccc(C#N)c(Cl)c6)CC5)nn4)C3)cc1)=N[C@@H](Cc1ncco1)c1nnc(C)n1-2 (stereo partly drawn) [I-203] | 1500 to 3000 | > 3000 | – | – | < 500 | 500 to 1500 | 500 to 1500 | 500 to 1500 | – | –
Cc1sc2c(c1C)C(c1ccc(C3C[C@H]3CC3CCCN(c4ccc(C(=O)N[C@H]5CC[C@H](Oc6ccc(C#N)c(Cl)c6)CC5)nn4)C3)cc1)=N[C@@H](Cc1ncco1)c1nnc(C)n1-2 (stereo partly drawn) [I-204] | < 500 | < 500 | – | – | < 500 | < 500 | < 500 | < 500 | – | –
Cc1sc2c(c1C)C(c1ccc(C3CC3CC3CCCN(c4ccc(C(=O)N[C@H]5CC[C@H](Oc6ccc(C#N)c(Cl)c6)CC5)nn4)C3)cc1)=N[C@@H](Cc1ncco1)c1nnc(C)n1-2 (stereo partly drawn) [I-205] | < 500 | < 500 | – | – | < 500 | < 500 | < 500 | < 500 | – | –
Cc1sc2c(c1C)C(c1ccc(N3CC(C4CCN(c5ccc(C(=O)N[C@H]6CC[C@H](Oc7ccc(C#N)c(Cl)c7)CC6)nn5)CC4)C3)cc1)=N[C@@H](C)c1nnc(C)n1-2 [I-434] | < 500 | 500 to 1500 | – | – | < 500 | < 500 | – | – | – | –

Further lines, with some results ahead:

GI50 (VCaP cells; Homo sapiens, VCaP, 72 h) [nM] | GI50 (T47D cells; Homo sapiens, T47D, 72 h) [nM] | GI50 (VCaP cells) [nM] | GI50 (T47D cells) [nM] | Compound | GI50 ([1]; 72 h) [nM] | GI50 ([2]; 72 h) [nM] | GI50 [3] [nM] | GI50 [4] [nM] | GI50 [1] [nM] | GI50 [2] [nM]
< 500 | > 3000 | – | – | Cc1sc2c(c1C)C(c1ccc(OC3CC4(C3)CC3(CCN(c5ccc(C(=O)N[C@H]6CC[C@H](Oc7ccc(C#N)c(Cl)c7)CC6)nn5)CC3)C4)cc1)=N[C@@H](C)c1nnc(C)n1-2 [I-435] | < 500 | > 3000 | – | – | – | –
< 500 | 500 to 1500 | – | – | Cc1sc2c(c1C)C(c1ccc(OC3CC4(C3)CC3(CCN(c5ccc(C(=O)N[C@H]6CC[C@H](Oc7ccc(C#N)c(Cl)c7)CC6)nn5)CC3)C4)nc1)=N[C@@H](C)c1nnc(C)n1-2 [I-436] | < 500 | > 3000 | – | – | – | –
< 500 | < 500 | – | – | Cc1sc2c(c1C)C(c1ccc(C3CC(N4CCN(c5ccc(C(=O)N[C@H]6CC[C@H](Oc7ccc(C#N)c(Cl)c7)CC6)nn5)CC4)C3)cc1)=N[C@@H](Cc1ncco1)c1nnc(C)n1-2 (stereo partly drawn) [I-437] | < 500 | < 500 | – | – | – | –
< 500 | 500 to 1500 | – | – | Cc1sc2c(c1C)C(c1ccc(CCC3CC4(CCCC(c5ccc(C(=O)N[C@H]6CC[C@H](Oc7ccc(C#N)c(Cl)c7)CC6)nn5)C4)C3)nc1)=N[C@@H](Cc1ncco1)c1nnc(C)n1-2 (stereo partly drawn) [I-438] | < 500 | < 500 | – | – | – | –
– | – | 500 to 1500 | 500 to 1500 | Cc1sc2c(c1C)C(c1ccc(CCC3CC4(CCCC(c5ccc(C(=O)N[C@H]6CC[C@H](Oc7ccc(C#N)c(Cl)c7)CC6)nn5)C4)C3)nc1)=N[C@@H](Cc1ncco1)c1nnc(C)n1-2 (stereo partly drawn) [I-439] | – | – | – | – | < 500 | < 500
< 500 | 500 to 1500 | – | – | Cc1sc2c(c1C)C(c1ccc(C(C)(C)CN3CC4(CCCN(c5ccc(C(=O)N[C@H]6CC[C@H](Oc7ccc(C#N)c(Cl)c7)CC6)nn5)C4)C3)cc1)=N[C@@H](Cc1ncco1)c1nnc(C)n1-2 [I-440] | < 500 | 500 to 1500 | – | – | – | –
< 500 | < 500 | – | – | Cc1sc2c(c1C)C(c1ccc(COC3(C)CC4(CN(c5ccc(C(=O)N[C@H]6CC[C@H](Oc7ccc(C#N)c(Cl)c7)CC6)nn5)C4)C3)cc1)=N[C@@H](Cc1ncco1)c1nnc(C)n1-2 [I-441] | < 500 | < 500 | – | – | – | –
– | – | < 500 | < 500 | Cc1sc2c(c1C)C(c1ccc(-c3coc(C4CCN(c5ccc(C(=O)N[C@H]6CC[C@H](Oc7ccc(C#N)c(Cl)c7)CC6)nn5)CC4)n3)cc1)=NC(Cc1ncco1)c1nnc(C)n1-2 (stereo partly drawn) [I-442] | – | – | – | – | < 500 | < 500

From patent US20260109707A1, “HETEROBIFUNCTIONAL COMPOUNDS AND METHODS OF TREATING DISEASE” (Halda Therapeutics OpCo. Inc., priority 2022, published 2026)
